The subject of one data set is H460 and A375 cells. Briefly: Cell viability assays in H460 and A375 cells. It is filed as cell-based. As to conditions: FIGS. 9-11. How it is done:
Example 217. (FIG. 9) Screening of selected USP2 inhibitors using cell viability assays. H460 cells were treated with […] of indicated compounds for 48 h, cell viabilities were indicated by the images of cell morphology. Example 218. (FIG. 10) Screening of selected USP2 inhibitors using cell viability assays. A375 cells were treated with indicated concentration of indicated compounds for 48 h, cell viabilities were indicated by the images of cell morphology. Example 219. (FIG. 11) GI50 determination of selected compounds in A375 cells after 48 hours treatment. 0.3 million of H460 cells were seeded in 6-well plate. Next day, cells were treated with 10 uM of drugs for 48 h. DMSO served as negative control. Images of cell morphology were obtained with Olympus IX51 microscope, indicating the cell viability upon treatment.

A further data set in a line: In vivo mouse PK studies. The conditions noted are these: plasma, po, 10 mg/kg. How it is done: Example 222. (FIG. 14) PK results of selected compounds. (a) Plasma concentrations of MS102 and ML346 over 24 h after i.p. injection at 50 mg/kg dose. (b) Plasma concentrations of MS102 over 24 h using different administration routes: […]. (50 mg/kg) by. (c) Plasma concentrations of […]161-180 and XH153-182 over 8 h at 5 mg/kg dose by i.p. injection. (d) Plasma concentrations of XH161-172 over 24 h using different administration routes: […]) Plasma concentrations of XH161-180 over 24 h using different administration routes: […]. (10 mg/kg). Pharmacokinetic studies for ML364, MS102, MS1172, MS1180 and XH153-182 were performed by Sai Life Sciences Limited (India). Experiments were design with 3 mice/time point/compound. Animals were administered intraperitoneally, intravenously as slow bolus injection through tail vein, or through oral route with solution formulation of indicated compound at indicated dose. […] Blood samples (approximately 60 μL) were collected under light isoflurane anesthesia (Surgivet®) from a set of three mice at different time points. Immediately after blood collection, plasma was harvested by centrifugation at 4000 rpm, 10 min at 4° C., and samples were stored at -70±10° C. until bioanalysis. All samples were processed for analysis by protein precipitation method and analyzed with the fit-for-purpose LC-MS/MS method (LLOQ=1.01 ng/mL). […]

Data set [1] relates to P53 and P21 protein levels in H460 and A375 cells. Nature of the data set: Immunoblotting of p53 and p21 protein levels in H460 and A375 cells. It counts as cell-based. The conditions noted are these: FIGS. 12-13. How it is done:
Example 220. (FIG. 12) Screening of selected USP2 inhibitors in H460 cells using immunoblotting experiments. The effect of selected USP2 inhibitors (10 μM, 48 h treatment time) on modulating the protein levels of p53 and p21 in H460 cells. Example 221. (FIG. 13) Screening of selected USP2 inhibitors in A375 cells using immunoblotting experiments. The effect of selected USP2 inhibitors with indicated concentration after indicated treatment time on modulating the protein levels of p53 and p21 in A375 cells. Whole cell extracts were prepared with Flag lysis buffer (50 mM Tris-HCl, pH 8.0, 137 mM NaCl, 1 mM NaF, 1 mM NaVO3, 1% Triton X-100, 0.2% sarkosyl, 0.5 mM DTT, 0.5 mM PMSF and 10% glycerol) containing fresh-added protease inhibitors. For cytosolic and nuclear fractions, the cell pellet was firstly incubated with Harvest buffer (10 mM Hepes (pH 8.0), 50 mM NaCl, 0.5 M sucrose, 0.1 mM EDTA, and 0.25% Triton X-100) containing fresh-added protease inhibitors for 5 min on ice followed by centrifugation @120 g for 10 min. The supernatant was cytosolic fraction. After wash twice with buffer A (10 mM Hepes (pH 8.0), 10 mM KCl, 0.1 mM EDTA, and 0.1 mM EGTA), nuclear pellet was lyzed with BC100 (50 mM Tris-HCl, pH 8.0, 100 mM NaCl, 0.2% Triton X-100, and 10% glycerol) containing fresh-added protease inhibitors for 30 min on ice to get the nuclear fraction. Protein concentration was measured with the protein assay dye reagent (Bio-Rad, Cat #5000006) as manufacturer's user guide. 20-60 μg total proteins were loaded to and separated in SDS-PAGE precast gels, then transferred to nitrocellulose membrane. After incubation with primary antibodies for overnight at 4° C., HRP-conjugated secondary antibodies were used, and western blot signals were detected on autoradiographic films after incubating with ECL substrate.

The test system of data set [2] is ACE2 and cyclin D1 protein levels in HepG2 cells. Nature of the data set: Immunoblotting of ACE2 and cyclin D1 protein levels in HepG2 cells. A general note: Immunoblotting shows a protein as a band on a membrane.
Experimental: (FIG. 5) Screening of selected USP2 inhibitors in HepG2 cells using immunoblotting experiments. (a,b) The effect of selected USP2 inhibitors (5 M) on modulating the protein levels of ACE2 and cyclin D1 in HepG2 cells. […] (d) The effect of selected USP2 inhibitors (1 and 5 μM) on modulating the protein levels of ACE2 and cyclin D1 in HepG2 cells. (e-f) The effect of selected USP2 inhibitors (5 M) on modulating the protein levels of ACE2 and cyclin D1 in HepG2 cells.
In brief, cells were lysed in protease and phosphatase inhibitor-contained EBC buffer (50 mM Tris-HCl, pH 7.4; 120 mM NaCl; 0.5% NP-40). Protein concentrations were determined, and an equal amount of protein samples were harvested, followed by adding 5×SDS loading buffer (312 mM Tris-HCl, 10% SDS, 25 mM P-mercaptoethanol, 50% glycerol, and 0.05% bromophenol blue) and boiling for 10 min. SDS-PAGE electrophoresis, wet electroblotting, milk blocking, primary and secondary antibody incubation, and ECL development were conducted sequentially.
The next data set deals with T1, USP2 (Homo sapiens, UniProt O75604).
T1 sequence (O75604 259-605 limits assumed): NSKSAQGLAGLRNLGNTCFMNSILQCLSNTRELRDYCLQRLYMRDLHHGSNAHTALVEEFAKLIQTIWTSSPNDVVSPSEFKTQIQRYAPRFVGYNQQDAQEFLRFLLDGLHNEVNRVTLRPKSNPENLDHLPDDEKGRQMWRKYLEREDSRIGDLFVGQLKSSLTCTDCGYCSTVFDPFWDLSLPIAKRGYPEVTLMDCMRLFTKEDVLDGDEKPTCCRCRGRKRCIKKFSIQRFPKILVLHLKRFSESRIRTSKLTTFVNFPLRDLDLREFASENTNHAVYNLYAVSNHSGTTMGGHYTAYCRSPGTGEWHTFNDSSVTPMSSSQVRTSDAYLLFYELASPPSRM
Briefly: biochemical.

Each structure is given as a SMILES string.

Experimental for USP2: (FIG. 4) IC50 determination of selected USP2 inhibitors using USP2 enzymatic activity assays.
The USP2 (E-504-050, R & D Systems) and SARS-CoV-2 PLpro (100735, BPS Bioscience) deubiquitinase activity was determined with the DUB Activity Assay Kit (701490, Cayman), slightly modified based on the manufacturer's instructions. Briefly, the inhibitors were diluted as indicated with 40 μL of 1×DUB assay buffer, followed by adding 5 μL of DUB proteins. The plate was covered and incubated with the DUB-inhibitor mix at 37° C. for 30 minutes. Then, the plate cover was removed, and the reactions were initiated by quickly adding 5 μL of Ubiquitin-AMC to all wells being used. The fluorescence was read in an Infinite M1000 microplate reader (Tecan), with an excitation wavelength of 360 nm and emission wavelength of 460 nm. The DUB activity was calculated using the formulation provided by the kit.

Regarding `O=C(Nc1nc(-c2ccc(Br)cc2)cs1)c1ccc(F)cc1NS(=O)(=O)C1CCCCC1` [MS1180, N-(4-(4-bromophenyl)thiazol-2-yl)-2-(cyclohexanesulfonamido)-4-fluorobenzamide], the antiproliferation effect entry in the data set on H460 and A375 cells is “antiproliferation effect”. In addition, the bioavailability (commonly the share of a dose that reaches the circulation, judged against a reference dose that is usually intravenous) in “In vivo mouse PK studies” was 95%. For the same compound, the “tumor suppressors P53 and P21 protein levels” value in data set [1] is “elevating”.

`O=C(Nc1nc(-c2ccc(Br)cc2)cs1)c1ccc(F)cc1NC(=O)C(F)(F)F` [XH188-135p2, N-(4-(4-Bromophenyl)thiazol-2-yl)-4-fluoro-2-(2,2,2-trifluoroacetamido)benzamide]: the antiproliferation effect entry in the data set with H460 and A375 cells was “antiproliferation effect”. Also, in data set [1], the “tumor suppressors P53 and P21 protein levels” value is reported as “elevating”.

In the case of `Cc1ccc(S(=O)(=O)Nc2cc(F)ccc2C(=O)Nc2nccs2)cc1` [XH153-182, 4-fluoro-2-((4-methylphenyl)sulfonamido)-N-(thiazol-2-yl)benzamide], the antiproliferation effect result in the data set on H460 and A375 cells is on record as “antiproliferation effect”. In addition, the “tumor suppressors P53 and P21 protein levels” value in data set [1] was “elevating”.

As for `O=c1c2ccc(F)cc2nc(C(F)(F)F)n1-c1nc(-c2ccc(Br)cc2)cs1` [XH188-135p1, 3-(4-(4-Bromophenyl)thiazol-2-yl)-7-fluoro-2-(trifluoromethyl)quinazolin-4(3H)-one], the antiproliferation effect result in the data set with H460 and A375 cells is on record as “antiproliferation effect”. Besides, in data set [1], the “tumor suppressors P53 and P21 protein levels” value is given as “elevating”.

With `Cc1ccc(S(=O)(=O)Nc2ccc(C(F)(F)F)cc2C(=O)Nc2nc(-c3ccc(Br)cc3)cs2)cc1` [XH161-102 (MS102), N-(4-(4-bromophenyl)thiazol-2-yl)-2-((4-methylphenyl)sulfonamido)-5-(trifluoromethyl)benzamide], the ACE2 protein level entry in data set [2] was “dose-dependent reduce”. The IC50 – broadly, the concentration that gives 50% inhibition – against USP2 was 5 µM.

Regarding `O=C(Nc1cc(F)ccc1C(=O)Nc1nc(-c2ccc(F)cc2)cs1)c1ccc(C(F)(F)F)cc1` [XH208-93p2, 4-Fluoro-N-(4-(4-fluorophenyl)thiazol-2-yl)-2-(4-(trifluoromethyl)benzamido)benzamide], the antiproliferation effect entry with H460 and A375 cells is “antiproliferation effect”. Further, the “tumor suppressors P53 and P21 protein levels” value in data set [1] is on record as “elevating”.

On to `CC(C)S(=O)(=O)Nc1cc(F)ccc1C(=O)Nc1nc(-c2ccc(Br)cc2)cs1` [MS1172, N-(4-(4-bromophenyl)thiazol-2-yl)-4-fluoro-2-((1-methylethyl)sulfonamido)benzamide], for which the antiproliferation effect entry with H460 and A375 cells was “antiproliferation effect”. The bioavailability in the data set “In vivo mouse PK studies” came out at 100%. Moreover, the “tumor suppressors P53 and P21 protein levels” value in data set [1] is “elevating”.

For the compound `O=C(Nc1nc(-c2ccc(F)cc2)cs1)c1ccc(F)cc1NC(=O)C(F)(F)F` [XH198-68p2, 4-Fluoro-N-(4-(4-fluorophenyl)thiazol-2-yl)-2-(2,2,2-trifluoroacetamido)benzamide], in the data set with H460 and A375 cells, the antiproliferation effect entry is “antiproliferation effect”. Moreover, in data set [1], the “tumor suppressors P53 and P21 protein levels” value is recorded as “elevating”.
